Results as given in patent publication US5304551A, “Anti-fungal compounds” (British Technology Group Limited, priority 1990, dated 1994).
Converted amounts (≈) assume the structure as drawn.

Key:
Type in all cases: cell-based
[1] = system: Candida albicans NCYC 597; assay: Antifungal activity, agar plate disc zone of inhibition, approximate MIC, Candida albicans; conditions: NCYC597, C. albicans, compound in dimethyl sulphoxide, 13 mm discs on nutrient agar, 24h and 48h incubation, read-out: MICs, C. albicans
Protocol: (§1) Candida albicans NCYC 597; Trichophyton mentagrophytes NCPF 224 and Microsporum audounii NCPF 638 were used throughout as test organisms. These are open deposits at the National Collection of Yeast Cultures, Norwich UK and the National Collection of Pathogenic Fungi of the Commonwealth Mycological Institute, Kew UK.
(§2) All organisms were maintained in a nutrient broth containing (gl^-1): Lab Lemco (Oxoid), 5; Peptone (Oxoid), 5; NaCl, 10. Cultures for testing antimicrobial activity were grown in this medium for 18h prior to use. Solidified media were prepared by the addition of Agar (Oxoid No. 3) 1.5% w/v.
(§3) Antifungal activity was estimated using solutions of the compound (as the free acid) in dimethyl sulphoxide. A range of concentrations was used for each compound to permit calculation of an approximate MIC. 13 mm discs (Whatman) were soaked in a solution of the appropriate dilution, either allowed to dry, or placed directly onto the surface of nutrient agar plates seeded with the required test organism.
(§4) After 24h incubation the diameters of zones of inhibition were measured. After a further 24h incubation, the plates were re-examined and zones re-measured.

[2] = system: Trichophyton mentagrophytes NCPF 224; assay: Antifungal activity, agar plate disc zone of inhibition, approximate MIC, Trichophyton mentagrophytes; conditions: for MIC: Trichophyton mentagrophytes, NCPF224, approximate MIC, compound in dimethyl sulphoxide, 13 mm discs on nutrient agar, 24h and 48h incubation, read-out: MICs, T. ment.; for activity against the athlete's foot organism (in words): athlete's foot and ringworm organisms
Protocol: as §1, §2, §3, §4

[3] = system: Microsporum audounii NCPF 638; assay: Antifungal activity, agar plate disc zone of inhibition, approximate MIC, Microsporum audounii; conditions: for MIC: Microsporum, NCPF638, M. audounii, approximate MIC, compound in dimethyl sulphoxide, 13 mm discs on nutrient agar, 24h and 48h incubation; for activity against the ringworm organism (in words): athlete's foot and ringworm organisms
Protocol: as §1, §2, §3, §4

**Q.** What does the source list for `C[C@H](CCCCO)[C@H]1CC[C@H]2[C@@H]3CC[C@@H]4C[C@H](O)CC[C@]4(C)[C@H]3C[C@H](O)[C@]12C` [deoxycholic, Z = CH2 OH, 3α,12α,25-trihydroxy-25-homo-5β-cholane]?
**A.** MIC [1]: 150 µg/mL (≈ 382 µM); MIC ([2]; T. mentagrophytes): 30 µg/mL (≈ 76.4 µM); activity against the athlete's foot organism (in words) [2]: outstanding; MIC [3]: 5 µg/mL (≈ 12.7 µM); activity against the ringworm organism (in words) [3]: outstanding

**Q.** With `C[C@H](CCCO)[C@H]1CC[C@H]2[C@@H]3[C@H](O)C[C@@H]4C[C@H](O)CC[C@]4(C)[C@H]3C[C@H](O)[C@]12C` [cholic, Z = OH, 3α,7α,12α,24-tetrahydroxy-5β-cholane] as the compound, how does the MIC [1] read?
**A.** The MIC was 900 µg/mL (≈ 2280 µM).

**Q.** And the MIC ([2]; T. mentagrophytes)?
**A.** Its MIC is 1650 µg/mL (≈ 4180 µM).

**Q.** And the MIC [3]?
**A.** The MIC was 3800 µg/mL (≈ 9630 µM).

**Q.** Which MIC [1] does the source give for `C[C@H](CCCO)[C@H]1CC[C@H]2[C@@H]3CC[C@@H]4C[C@H](O)CC[C@]4(C)[C@H]3C[C@H](O)[C@]12C` [deoxycholic, Z = OH, 3α,12α,24-trihydroxy-5β-cholane] here?
**A.** The MIC was 730 µg/mL (≈ 1930 µM).

**Q.** What about the MIC ([2]; T. mentagrophytes) of the same compound?
**A.** Its MIC is 10 µg/mL (≈ 26.4 µM).

**Q.** What about the “activity against the athlete's foot organism (in words)” value [2] of the same compound?
**A.** Its value is “outstanding”.

**Q.** What about the MIC [3] of the same compound?
**A.** The MIC was 10 µg/mL (≈ 26.4 µM).

**Q.** And the “activity against the ringworm organism (in words)” value [3]?
**A.** Its value is “outstanding”.

**Q.** How did the MIC [1] turn out when `C[C@H](CCCCO)[C@H]1CC[C@H]2[C@@H]3[C@H](O)C[C@@H]4C[C@H](O)CC[C@]4(C)[C@H]3C[C@H](O)[C@]12C` [cholic, Z = CH2 OH, 3α,7α,12α,25-tetrahydroxy-25-homo-5β-cholane] was run?
**A.** The MIC was 450 µg/mL (≈ 1100 µM).

**Q.** What about the MIC ([2]; T. mentagrophytes) of the same compound?
**A.** Its MIC is 100 µg/mL (≈ 245 µM).

**Q.** What about the MIC [3] of the same compound?
**A.** Its MIC is 20 to 50 µg/mL (≈ 48.9 to 122 µM).

**Q.** With `C[C@H](CCCO)[C@H]1CC[C@H]2[C@@H]3[C@H](O)C[C@@H]4C[C@H](O)CC[C@]4(C)[C@H]3CC[C@]12C` [chenodeoxycholic, Z = OH, 3α,7α,24-trihydroxy-5β-cholane] as the compound, how does the MIC [1] read?
**A.** Its MIC is 7000 µg/mL (≈ 18500 µM).

**Q.** What about the MIC ([2]; T. mentagrophytes) of the same compound?
**A.** The MIC was 30 µg/mL (≈ 79.2 µM).

**Q.** What about the MIC [3] of the same compound?
**A.** The MIC was 50 µg/mL (≈ 132 µM).

**Q.** With `C[C@H](CCCCO)[C@H]1CC[C@H]2[C@@H]3[C@H](O)C[C@@H]4C[C@H](O)CC[C@]4(C)[C@H]3CC[C@]12C` [chenodeoxycholic, Z = CH2 OH, 3α,7α,25-trihydroxy-25-homo-5β-cholane] as the compound, how does the MIC [1] read?
**A.** The MIC was 110 µg/mL (≈ 280 µM).

**Q.** What about the “MICs, T. ment. (result in words)” value ([2]; T. mentagrophytes, no MIC / no activity) of the same compound?
**A.** The value was “NONE”.

**Q.** And the MIC [3]?
**A.** The MIC was 270 µg/mL (≈ 688 µM).
